Measurements published in the NIST ThermoML archive (doi:10.1016/j.fluid.2014.07.036).

Assay: refractive index (other wavelength) (dimensionless); xn = mol fraction of the nth substance listed
Conditions: 85 kPa, Liquid, Wavelength=632.8 nm, minimum deviation angle

CCCCCCCC[n+]1ccn(C)c1.F[B-](F)(F)F [1-methyl-3-octylimidazolium tetrafluoroborate] + CCCCCO
Conditions	refractive index
281.39 K, x1 = 0.012	1.4139
281.39 K, x1 = 0.339	1.4262
282.13 K, x1 = 0.014	1.4137
282.13 K, x1 = 0.33	1.4257
282.87 K, x1 = 0.015	1.4135
282.87 K, x1 = 0.32	1.4252
283.57 K, x1 = 0.018	1.4134
283.57 K, x1 = 0.315	1.4248
284.24 K, x1 = 0.019	1.4132
284.24 K, x1 = 0.305	1.4243
284.89 K, x1 = 0.02	1.413
284.89 K, x1 = 0.295	1.4238
285.51 K, x1 = 0.021	1.4128
285.51 K, x1 = 0.285	1.4233
286.09 K, x1 = 0.021	1.4126
286.09 K, x1 = 0.278	1.4229
286.64 K, x1 = 0.023	1.4125
286.64 K, x1 = 0.268	1.4224
287.13 K, x1 = 0.025	1.4124
287.13 K, x1 = 0.257	1.4219
287.58 K, x1 = 0.026	1.4123
287.58 K, x1 = 0.246	1.4214
287.98 K, x1 = 0.029	1.4123
287.98 K, x1 = 0.238	1.421
288.34 K, x1 = 0.03	1.4122
288.34 K, x1 = 0.23	1.4206
288.64 K, x1 = 0.032	1.4122
288.64 K, x1 = 0.224	1.4203
288.88 K, x1 = 0.034	1.4122
288.88 K, x1 = 0.217	1.42
289.09 K, x1 = 0.035	1.4122
289.09 K, x1 = 0.214	1.4198
289.29 K, x1 = 0.038	1.4123
289.29 K, x1 = 0.207	1.4195
289.44 K, x1 = 0.039	1.4123
289.44 K, x1 = 0.203	1.4193
289.63 K, x1 = 0.041	1.4123
289.63 K, x1 = 0.196	1.419
289.73 K, x1 = 0.042	1.4123
289.73 K, x1 = 0.191	1.4188
289.86 K, x1 = 0.044	1.4124
289.86 K, x1 = 0.19	1.4187
289.98 K, x1 = 0.047	1.4125
289.98 K, x1 = 0.186	1.4185
290.07 K, x1 = 0.05	1.4126
290.07 K, x1 = 0.181	1.4183
290.16 K, x1 = 0.052	1.4127
290.16 K, x1 = 0.179	1.4182
290.25 K, x1 = 0.055	1.4128
290.25 K, x1 = 0.175	1.418
290.31 K, x1 = 0.059	1.413
290.31 K, x1 = 0.173	1.4179
290.38 K, x1 = 0.062	1.4131
290.38 K, x1 = 0.168	1.4177
290.43 K, x1 = 0.066	1.4133
290.43 K, x1 = 0.166	1.4176
290.49 K, x1 = 0.069	1.4134
290.49 K, x1 = 0.161	1.4174
290.49 K, x1 = 0.598	1.4284
290.5 K, x1 = 1	1.4338
290.52 K, x1 = 0.071	1.4135
290.52 K, x1 = 0.156	1.4172
290.56 K, x1 = 0.076	1.4137
290.56 K, x1 = 0.1	1.4148
290.56 K, x1 = 0.151	1.417
290.59 K, x1 = 0.797	1.4313
290.59 K, x1 = 0.898	1.4327
290.6 K, x1 = 0.078	1.4138
290.6 K, x1 = 0.147	1.4168
290.61 K, x1 = 0.08	1.4139
290.61 K, x1 = 0.144	1.4167
290.65 K, x1 = 0.085	1.4141
290.65 K, x1 = 0.137	1.4164
290.66 K, x1 = 0.087	1.4142
290.66 K, x1 = 0.132	1.4162
290.67 K, x1 = 0.089	1.4143
290.67 K, x1 = 0.091	1.4144
290.67 K, x1 = 0.128	1.416
290.67 K, x1 = 0.13	1.4161
290.67 K, x1 = 0.697	1.4299
290.68 K, x1 = 0.094	1.4145
290.68 K, x1 = 0.096	1.4146
290.68 K, x1 = 0.098	1.4147
290.68 K, x1 = 0.118	1.4156
290.68 K, x1 = 0.121	1.4157
290.68 K, x1 = 0.123	1.4158
290.68 K, x1 = 0.125	1.4159
290.76 K, x1 = 0.498	1.4264
290.93 K, x1 = 0.396	1.4243
290.95 K, x1 = 0.2	1.4185
291.87 K, x1 = 1	1.4334
292.22 K, x1 = 0.898	1.4322
292.28 K, x1 = 0.598	1.4279
292.3 K, x1 = 0.797	1.4308
292.33 K, x1 = 0.498	1.4259
292.39 K, x1 = 0.697	1.4294
292.67 K, x1 = 0.396	1.4237
292.68 K, x1 = 0.2	1.4179
292.95 K, x1 = 0.1	1.414
293.43 K, x1 = 1	1.433
294.01 K, x1 = 0.498	1.4253
294.06 K, x1 = 0.898	1.4317
294.07 K, x1 = 0.598	1.4273
294.09 K, x1 = 0.797	1.4303
294.12 K, x1 = 0.697	1.4289
294.44 K, x1 = 0.396	1.423
294.76 K, x1 = 0.2	1.4171
295.04 K, x1 = 0.1	1.4132
295.05 K, x1 = 1	1.4325
295.73 K, x1 = 0.498	1.4248
295.84 K, x1 = 0.598	1.4268
295.89 K, x1 = 0.898	1.4312
295.91 K, x1 = 0.797	1.4299
295.92 K, x1 = 0.697	1.4283
296.31 K, x1 = 0.396	1.4224
296.55 K, x1 = 0.2	1.4165
296.68 K, x1 = 1	1.4321
297.32 K, x1 = 0.1	1.4124
297.61 K, x1 = 0.797	1.4294
297.68 K, x1 = 0.697	1.4278
297.69 K, x1 = 0.498	1.4241
297.71 K, x1 = 0.598	1.4262
297.84 K, x1 = 0.898	1.4306
298.31 K, x1 = 0.396	1.4217
298.41 K, x1 = 1	1.4316
298.67 K, x1 = 0.2	1.4158
299.26 K, x1 = 0.1	1.4116
299.58 K, x1 = 0.697	1.4273
299.58 K, x1 = 0.797	1.4288
299.74 K, x1 = 0.498	1.4235
299.74 K, x1 = 0.598	1.4256
299.92 K, x1 = 0.898	1.43
300.25 K, x1 = 1	1.4311
300.61 K, x1 = 0.396	1.4209
300.68 K, x1 = 0.2	1.4151
301.73 K, x1 = 0.1	1.4107
302.04 K, x1 = 1	1.4305

CCCCCCO [hexan-1-ol] + CCCCCCCC[n+]1ccn(C)c1.F[B-](F)(F)F
x2 = 0
Conditions	refractive index
293.99 K	1.4165
295.93 K	1.4156
297.36 K	1.4151
298.94 K	1.4145
300.69 K	1.4138
303.34 K	1.4128
304.77 K	1.4122
306.24 K	1.4117

CCCCCO [pentan-1-ol] + CCCCCCCC[n+]1ccn(C)c1.F[B-](F)(F)F
x2 = 0
Conditions	refractive index
290.68 K	1.4096
292.95 K	1.4087
295.03 K	1.4079
297.17 K	1.4071
299.35 K	1.4062
301.73 K	1.4053
